Patent US12605374B2, “Methods for drug screening and compositions useful for the inhibition of cell proliferation and/or cell survival” (The Brigham and Women's Hospital, Inc., priority 2019, dated 2026)
Entries after “also recorded” stand apart in the source; their conditions may differ.

Key:
embryonic zebrafish = assay: Blinded re-screen of top 10 prioritized ChemBridge compounds for developmental phenotypes in embryonic zebrafish; type: in vivo; conditions: for Phenotype Observed: embryonic zebrafish, 10 uM introduced at 5 hpf, scored at 24 and 48 hpf, blinded, in duplicate
Experimental: Male and female wild-type (AB) fish were housed and embryos bred for screening using standard protocols. […] 10 mM compound stocks were diluted to 2 mM using DMSO, and 1 μL of each diluted compound solution was introduced into individual wells at 5 hours post fertilization (hpf) using a manual multichannel pipettor (10 uM final concentration). The first and last column of each plate received only DMSO, serving as negative control wells.
Embryos were screened for a series of developmental phenotypes at both 24 and 48 hpf using standard light microscopy. […] Only those wells where at least two of the three embryos were dead or delayed were annotated as a hit for 24 hour death or delay/arrest, respectively.
Resulting scores for each phenotype were used to rank the over 900,000 compounds. Enrichment for compounds with high (>0.95) similarity to known therapeutics (defined using Tanimoto Coefficient of molecular fingerprints) was calculated for each of the 6 ranked lists using gene set enrichment analysis^69. The top 10 highest-ranking compounds from each of the 6 lists were screened as described above, blinded and in duplicate.

zebrafish embryos = assay: Rescue of developmental delay/arrest phenotype by phospholipase products; type: in vivo; conditions: for rescue of the developmental delay/arrest phenotype of DA5: zebrafish embryos treated with DA5
Source text: FIG. 15 (A)-(B): Effect of timing and injection on DA5 rescue. Rescue of the DA5 phenotype was compared using introduction of phosphatidic acid (PAC) in-well, versus injected into the embryo at the 1-cell developmental stage (A; DA5 introduced at 5 hpf).
Given the known role of anoxia in cancer cell proliferation, we investigated the potential of the DA compounds to inhibit cancer cell growth in cell culture. We found a significant reduction in the proliferation of immortalized cells upon introduction of all DA compounds (FIG. 16).

COc1ccccc1Nc1nc(-c2ccncc2)cs1 [ChemBridge ID 5745969]
Hit (predicted phenotype observed) (embryonic zebrafish; Prediction: Dead): No
Phenotype Observed (embryonic zebrafish): Multiple severe phenotypes

Br.COc1ccccc1Nc1nc(-c2sc(C)nc2C)cs1 [ChemBridge ID 5931065]
Hit (predicted phenotype observed) (embryonic zebrafish; Prediction: Dead): Yes
Phenotype Observed (embryonic zebrafish): Dead (48 h)

CC(NCc1ccccc1O)C12CC3CC(CC(C3)C1)C2 (stereo not drawn) [ChemBridge ID 6108849]
Hit (predicted phenotype observed) (embryonic zebrafish; Prediction: Pigmentation): Yes
Hit (predicted phenotype observed) (embryonic zebrafish; Prediction: Pigmentation Only): Yes
Phenotype Observed (embryonic zebrafish): No pigmentation, dying

O=C(Nc1ccccc1Cl)N1CCN(c2ccccc2F)CC1 [ChemBridge ID 7008803]
Hit (predicted phenotype observed) (embryonic zebrafish; Prediction: Cranial Edema): No
Phenotype Observed (embryonic zebrafish): slight discoloration

COCC1CCN(C(=O)c2cc(COc3ccc4ncccc4c3)on2)CC1 [ChemBridge ID 13197878]
Hit (predicted phenotype observed) (embryonic zebrafish; Prediction: Delay/Arrest): Yes
Phenotype Observed (embryonic zebrafish): Bud stage at 24 h, dead at 48 h

CCOC(=O)C1(CCc2ccccc2)CCCN(Cc2nccn2CC)C1 (stereo not drawn) [ChemBridge ID 13300080]
Hit (predicted phenotype observed) (embryonic zebrafish; Prediction: Pigmentation): Yes
Hit (predicted phenotype observed) (embryonic zebrafish; Prediction: Pigmentation Only): Yes
Phenotype Observed (embryonic zebrafish): No pigmentation, dying; also recorded: No pigmentation, slow heart beat

CN(CC1CCN(CCc2ccc(Cl)cc2)CC1)C(=O)c1ccccc1-n1cccn1 [ChemBridge ID 18069546]
Hit (predicted phenotype observed) (embryonic zebrafish; Prediction: Cardiac): Yes
Phenotype Observed (embryonic zebrafish): Pericardial edema, no heart beat

COC(=O)c1ccc(-c2noc(CN(Cc3ccncc3)CC3CCCO3)n2)cc1 (stereo not drawn) [ChemBridge ID 18809966]
Hit (predicted phenotype observed) (embryonic zebrafish; Prediction: Body Axis): Yes
Phenotype Observed (embryonic zebrafish): Small body (appear dorsalized)

O=C(c1cc(COc2ccc3ncccc3c2)on1)N1C[C@@H]2C[C@H]3C[C@@H](C2)C[C@@H]1C3 [ChemBridge ID 19759648]
Hit (predicted phenotype observed) (embryonic zebrafish; Prediction: Delay/Arrest): Yes
Phenotype Observed (embryonic zebrafish): Bud stage at 24 h, dead at 48 h

COC(=O)c1ccc(-c2nc(CN3CCCCC3c3cccc(OC)c3)c(C)o2)cc1 (stereo not drawn) [ChemBridge ID 20494296]
Hit (predicted phenotype observed) (embryonic zebrafish; Prediction: Body Axis): Yes
Phenotype Observed (embryonic zebrafish): Short, no heads

O=C(c1cc(COc2ccc3ncccc3c2)on1)N1CCCC(OCc2ccccn2)C1 (stereo not drawn) [ChemBridge ID 21652166]
Hit (predicted phenotype observed) (embryonic zebrafish; Prediction: Delay/Arrest): Yes
Phenotype Observed (embryonic zebrafish): 5-10 somite stage at 48 h

COC(=O)c1ccc(-c2nc(CN3CCCCC3c3nc4cc(F)ccc4[nH]3)c(C)o2)cc1 (stereo not drawn) [ChemBridge ID 22685803]
Hit (predicted phenotype observed) (embryonic zebrafish; Prediction: Body Axis): Yes
Phenotype Observed (embryonic zebrafish): Most dead, remaining have small bodies

CCOC(=O)C1(CCOc2ccccc2)CCN(Cc2cc(OC)cc(OC)c2)CC1 [ChemBridge ID 23490385]
Hit (predicted phenotype observed) (embryonic zebrafish; Prediction: Cardiac): Yes
Hit (predicted phenotype observed) (embryonic zebrafish; Prediction: Cranial Edema): No
Phenotype Observed (embryonic zebrafish): Pericardial edema, no heart beat

CSc1ccc(-c2nc(CN3CCCCC3c3nccn3C)c(C)o2)cc1 (stereo not drawn) [ChemBridge ID 23702187]
Hit (predicted phenotype observed) (embryonic zebrafish; Prediction: Pigmentation): Yes
Phenotype Observed (embryonic zebrafish): No pigmentation, cranial edema, slow heart beat

CN(CC1CCN(CCc2ccc(F)cc2)CC1)C(=O)c1ccsc1 [ChemBridge ID 26410496]
Hit (predicted phenotype observed) (embryonic zebrafish; Prediction: Cardiac): Yes
Phenotype Observed (embryonic zebrafish): Pericardial edema, no heart beat

COC(=O)c1ccc(-c2nc(CN(C)C(C)c3nc(C)cs3)c(C)o2)cc1 (stereo not drawn) [ChemBridge ID 34105851]
Hit (predicted phenotype observed) (embryonic zebrafish; Prediction: Body Axis): Yes
Phenotype Observed (embryonic zebrafish): Small body (no head)

OCCC1CN(Cc2ccc(F)cc2F)CCN1CCCc1ccccc1 (stereo not drawn) [ChemBridge ID 35983174]
Hit (predicted phenotype observed) (embryonic zebrafish; Prediction: Cardiac): Yes
Hit (predicted phenotype observed) (embryonic zebrafish; Prediction: Cardiac Only): Yes
Phenotype Observed (embryonic zebrafish): Pericardial edema, no heart beat

CN(CC1CCN(CCc2ccc(Cl)cc2)CC1)C(=O)C1=CCCCC1 [ChemBridge ID 37690524]
Hit (predicted phenotype observed) (embryonic zebrafish; Prediction: Cardiac): Yes
Phenotype Observed (embryonic zebrafish): Pericardial edema, no heart beat

CCOC(=O)C1(Cc2cccc(OC)c2)CCCN(Cc2nccn2CC)C1 (stereo not drawn) [ChemBridge ID 38433186]
Hit (predicted phenotype observed) (embryonic zebrafish; Prediction: Pigmentation): Yes
Hit (predicted phenotype observed) (embryonic zebrafish; Prediction: Pigmentation Only): Yes
Phenotype Observed (embryonic zebrafish): No pigmentation

CCOC(=O)C1(CCOc2ccccc2)CCN(Cc2ccc(OC)cc2)CC1 [ChemBridge ID 38617825]
Hit (predicted phenotype observed) (embryonic zebrafish; Prediction: Cardiac): No
Phenotype Observed (embryonic zebrafish): Dead (48 h)

CN(CC1CCN(CCc2ccc(Cl)cc2)CC1)C(=O)c1cccc(N(C)C)c1 [ChemBridge ID 39911836]
Hit (predicted phenotype observed) (embryonic zebrafish; Prediction: Cardiac): Yes
Phenotype Observed (embryonic zebrafish): Pericardial edema, no heart beat

C[C@@H]1CN(C(=O)c2cc(COc3ccc4ncccc4c3)on2)C[C@H](C)O1 [ChemBridge ID 44889923]
Hit (predicted phenotype observed) (embryonic zebrafish; Prediction: Delay/Arrest): Yes
Phenotype Observed (embryonic zebrafish): Look 24 h at 48 h

O=C(c1cc(COc2ccc3ncccc3c2)on1)N1CCC(N2CCSCC2)CC1 [ChemBridge ID 45187255]
Hit (predicted phenotype observed) (embryonic zebrafish; Prediction: Delay/Arrest): Yes
Phenotype Observed (embryonic zebrafish): Bud stage at 24 h, 5-18 somites at 48 h

O=C(c1cc(COc2ccc3ncccc3c2)on1)N1C[C@H]2CCC[C@H]1C2 [ChemBridge ID 54305680]
Hit (predicted phenotype observed) (embryonic zebrafish; Prediction: Delay/Arrest): Yes
Phenotype Observed (embryonic zebrafish): Bud stage at 24 h, dead at 48 h

COC(=O)c1ccc(-c2noc(CN(CCO)Cc3cccs3)n2)cc1 [ChemBridge ID 56638922]
Hit (predicted phenotype observed) (embryonic zebrafish; Prediction: Body Axis): Yes
Phenotype Observed (embryonic zebrafish): Small heads, short bodies

CN(CC1CCN(CCc2ccc(Cl)cc2)CC1)C(=O)c1ccsc1 [ChemBridge ID 59314184]
Hit (predicted phenotype observed) (embryonic zebrafish; Prediction: Cardiac): Yes
Phenotype Observed (embryonic zebrafish): Pericardial edema, no heart beat

CCOC(=O)C1(C/C=C/c2ccccc2)CCCN(Cc2nccn2CC)C1 (stereo not drawn) [ChemBridge ID 69904708]
Hit (predicted phenotype observed) (embryonic zebrafish; Prediction: Pigmentation): Yes
Hit (predicted phenotype observed) (embryonic zebrafish; Prediction: Pigmentation Only): Yes
Phenotype Observed (embryonic zebrafish): No pigmentation, cranial edema, slow heart beat

COC(=O)c1ccc(-c2noc(CN(CCO)Cc3ccccc3)n2)cc1 [ChemBridge ID 86606851]
Hit (predicted phenotype observed) (embryonic zebrafish; Prediction: Body Axis): Yes
Phenotype Observed (embryonic zebrafish): Some dead, alive have no head, necrotic

CCOC(=O)C1(CCOc2ccccc2)CCN(Cc2ccccc2OC)CC1 [ChemBridge ID 87194463]
Hit (predicted phenotype observed) (embryonic zebrafish; Prediction: Cardiac): No
Phenotype Observed (embryonic zebrafish): Dead (48 h)

Cc1oc(-c2cccc(C(F)(F)F)c2)nc1CN1CCCCC1c1nccn1C (stereo not drawn) [ChemBridge ID 91866361]
Hit (predicted phenotype observed) (embryonic zebrafish; Prediction: Pigmentation): Yes
Phenotype Observed (embryonic zebrafish): No pigmentation, cranial edema, slow heart beat

CCOC(=O)C1(Cc2ccccc2)CCCN(Cc2nccn2CC)C1 (stereo not drawn) [ChemBridge ID 98334673]
Hit (predicted phenotype observed) (embryonic zebrafish; Prediction: Pigmentation): Yes
Hit (predicted phenotype observed) (embryonic zebrafish; Prediction: Pigmentation Only): Yes
Phenotype Observed (embryonic zebrafish): No pigmentation, cranial edema

O=P(O)(O)O[C@@H]1[C@H](O)[C@H](O)[C@@H](OP(=O)(O)O)[C@H](OP(=O)(O)O)[C@H]1O [D-myo-Inositol-1,4,5-triphosphate]
rescue of the developmental delay/arrest phenotype of DA5 (zebrafish embryos): did not observe rescue

Phosphatidic acid
rescue of the DA5 phenotype (zebrafish embryos; DA5 introduced at 5 hpf, PAC in-well at 24 hpf, phenotypes surveyed at 36 hpf): rescue still observed
rescue of the DA5 phenotype (zebrafish embryos; upon injection and introduction into embryonic medium, multiple time points after DA5): rescued
rescue of the developmental delay/arrest phenotype of DA5 (zebrafish embryos): rescued
rescue of the developmental delay/arrest phenotype of DA5 (zebrafish embryos; listed as phosphatidic acid): rescue
rescue of the phenotype of oligomycin A (zebrafish embryos; zebrafish embryos treated with oligomycin A): did not rescue
